Reference: patent US11286263B2, “Macrocyclic fluorine substituted indole derivatives” (The Broad Institute, Inc., priority 2017, dated 2022)

How the values were obtained:
[1] = test system: AMO-1; experiment: Antiproliferation assay AMO-1 (Assay 7); type: cell-based; conditions: AMO-1 cells, 72 h, CellTiter-Glo; single determinations; read-out: IC50 Antiproli AMO-1
Method in brief: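 Cells were exposed to compounds for 72 h at 37 °C in a humidified incubator, with rim wells excluded. Viability was read by CellTiter-Glo luminescence after a 10 min incubation. A parallel day 0 plate, read the same way, gave the time-zero baseline.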

[2] = target: BCL-XL (Homo sapiens (Human), UniProt Q07817); experiment: Protein-protein interaction assay BCL-XL/Bad BH3 peptide (BCL-XL assay), TR-FRET; type: binding; conditions: median
Sequence of BCL-XL (Q07817 1-212): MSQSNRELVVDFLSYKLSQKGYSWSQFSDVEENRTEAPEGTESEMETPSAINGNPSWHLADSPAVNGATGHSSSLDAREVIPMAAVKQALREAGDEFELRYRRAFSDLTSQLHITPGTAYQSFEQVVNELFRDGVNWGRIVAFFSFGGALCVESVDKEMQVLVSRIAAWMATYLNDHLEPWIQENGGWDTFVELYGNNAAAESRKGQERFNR
Experimental: Assay 2 Protein-Protein Interaction Assay: BCL-XL/Bad BH3 Peptide (BCL-XL Assay)
The dose-dependent inhibition by the compounds described in this invention of the interaction between BCL-XL and the BH3 domain of Bad (both human) was determined using a steady state binding competition assay with time-resolved fluorescence energy transfer (TR-FRET) readout. For that purpose BCL-XL (amino acids 1-212, C-terminal fused to a hexahistidine (6× His) tag (SEQ ID 3) and a synthetic Bad BH3-derived peptide of sequence Biotin-PEG2-PEG2-NLWAAQRYGRELRR-Nle-SDEFVDSFKK-amide (SEQ ID 4) served as protein receptor and tracer ligand respectively. The recombinant BCL-XL protein (expressed in Ecol) was purchased from BPS Bioscience (San Diego, Calif., USA). The Bad BH3-derived peptide can be obtained from e.g. Biosyntan (Berlin, Germany).
In the assay 11 different concentrations of each compound (0.1 nM, 0.33 nM, 1.1 nM, 3.8 nM, 13 nM, 44 nM, 0.15 μM, 0.51 μM, 1.7 μM, 5.9 μM and 20 μM) were typically measured as duplicates in the same microtiter plate. For that, 100-fold concentrated DMSO solutions were prepared by serial dilutions (1:3.4) of a 2 mM stock solution in a clear, 384-well microtiter plate (Greiner Bio-One, Frickenhausen, Germany). From there, 50 nl were transferred in a dark test plate (Greiner Bio-One, Frickenhausen, Germany). The assay was initiated by addition of 2 μl of a 2,5-fold concentrated His-BCL-XL solution (usually for a 1 nM end concentration in 5 μl reaction volume) in aqueous assay buffer [50 mM Tris/HCl pH 7, 100 mM sodium chloride (NaCl), 50 μM potassium fluoride (KF), 0.005% Tween-20, 2 mM DTT, 0.1% bovine gamma globulin (BGG)] to the compounds in the assay plate. This was followed by a 10-minute incubation step at 22° C. for pre-equilibration of the putative complex between His-BCL-XL and the compounds. After that, 3 μl of a 1.67-fold concentrated solution (in assay buffer) consisting of Bad BH3-derived peptide (1 nM end concentration) and TR-FRET detection reagents [1.67 nM anti-His-Eu cryptate and 1.67 nM streptavidin-XL665 (both from Cisbio Bioassays, Codolet, France)], were added.
The mixture was incubated in the dark for one hour at 22° C. and then overnight at 4° C. The formation of BCL-XL/Bad complexes was determined by measuring the resonance energy transfer of the anti-His-Eu-cryptate antibody to the streptavidin-XL665 present in the reaction. For that purpose, the fluorescence emission at 620 nm and 665 nm after excitation at 330-350 nm was measured in a TR-FRET measuring instrument, for instance a Rubystar or a Pherastar (both from BMG Lab Technologies, Offenburg, Germany) or a Viewlux (Perkin-Elmer). The ratio of the emission at 665 nm and at 622 nm was used as indicator of the amount of BCL-XL/Bad complexes present.
The resulting data (ratio) were normalized, taking 0% inhibition as the mean value of control measurements (usually 32 data points) where all reagents were included. In this case 50 nl DMSO were used instead of compounds. A 100% inhibition corresponded to the mean value of control measurements (usually 32 data points) where all reagents except BCL-XL were included. IC50 values were determined by regression analysis based on a 4 parameter equation (minimum, maximum, IC50, Hill; Y=Max+(Min−Max)/(1+(X/IC50)^Hill) using the Screener Software (Genedata).

Molecule	IC50 [1] [µM]	IC50 [2] [µM]
CCc1nn(C)c2c1-c1c(F)ccc3c(CCCOc4ccc(F)c5ccccc45)c(C(=O)O)n(c13)CCCCOC2 (single isomer, unassigned; enantiomer 1) [Example 42, 3-ethyl-4-fluoro-7-{3-[(4-fluoronaphthalen-1-yl)oxy]propyl}-1-methyl-1,10,11,12,13,15-hexahydropyrazolo[4′,3′:9,10][1,6]oxazacycloundecino[8,7,6-hi]indole-8-carboxylic acid (enantiomer 1)]	6.96	> 20
Cc1c2c(nn1C)CNCCCCn1c(C(=O)O)c(CCCOc3cccc4ccccc34)c3ccc(F)c-2c31 (single isomer, unassigned; enantiomer 1) [Example 48, 4-fluoro-2,3-dimethyl-7-{3-[(naphthalen-1-yl)oxy]propyl}-10,11,12,13,14,15-hexahydro-2H-pyrazolo[3′,4′:8,9][1,6]diazacycloundecino[10,11,1-hi]indole-8-carboxylic acid (enantiomer 1)]	2.86	> 20
(rac)-1-(3-((2,3-dihydro-1H-inden-4-yl)oxy)propyl)-12-ethyl-13-fluoro-11-methyl-4,5,6,7,9,11-hexahydropyrazolo[4′,3′:9,10][1]oxa[6]azacycloundecino[8,7,6-hi]indole-2-carboxylic acid [Example 30]	1.69	> 20
